Measurements published in the supplement of paper PMC10307832.

Tests used:
Assay in all cases: relative viability (nuclei count vs DMSO), 5 days (fraction); higher = more cells survive
[1] = system: BEN
How it was run: (§1)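 Each reported value is a median over duplicate plates. It expresses relative viability: treated-well nuclei count divided by vehicle-well nuclei count. Lung cancer cell lines in 1536-well plates were dosed by pin tool a day after seeding, alone with one drug or with a fixed anchor-drug dose plus five library-drug doses (not always all listed) in √10 steps, and nuclei were counted after 5 days.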

[2] = system: EMC-BAC-2
How it was run: as §1

[3] = system: HCC-15
How it was run: as §1

[4] = system: HCC-44
How it was run: as §1

[5] = system: HOP-62
How it was run: as §1

[6] = system: LC-2-ad
How it was run: as §1

[7] = system: LU99A
How it was run: as §1

[8] = system: NCI-H1395
How it was run: as §1

[9] = system: NCI-H1437
How it was run: as §1

[10] = system: NCI-H1734
How it was run: as §1

[11] = system: NCI-H1755
How it was run: as §1

[12] = system: NCI-H1915
How it was run: as §1

[13] = system: NCI-H2023
How it was run: as §1

[14] = system: NCI-H2126
How it was run: as §1

[15] = system: NCI-H2170
How it was run: as §1

[16] = system: NCI-H3122
How it was run: as §1

[17] = system: NCI-H358
How it was run: as §1

[18] = system: NCI-H650
How it was run: as §1

[19] = system: NCI-H727
How it was run: as §1

[20] = system: SW 1573
How it was run: as §1

[21] = system: SW 900
How it was run: as §1

## Cc1cn(-c2cc(NC(=O)c3ccc(C)c(Nc4nccc(-c5cccnc5)n4)c3)cc(C(F)(F)F)c2)cn1 [Nilotinib] + CC(=O)Nc1cccc(-n2c(=O)n(C3CC3)c(=O)c3c(Nc4ccc(I)cc4F)n(C)c(=O)c(C)c32)c1 [Trametinib] (partner 0.02 µM)
[1]; first compound 0.001 µM
  relative viability: 0.98
[1]; first compound 0.003162 µM
  relative viability: 0.931
[1]; first compound 0.01 µM
  relative viability: 1.01
[1]; first compound 0.03162 µM
  relative viability: 0.954
[1]; first compound 0.1 µM
  relative viability: 1.15
[2]; first compound 0.001 µM
  relative viability: 0.874
[2]; first compound 0.003162 µM
  relative viability: 0.697
[2]; first compound 0.01 µM
  relative viability: 0.849
[2]; first compound 0.03162 µM
  relative viability: 0.604
[2]; first compound 0.1 µM
  relative viability: 0.65
[3]; first compound 0.001 µM
  relative viability: 0.375
[3]; first compound 0.003162 µM
  relative viability: 0.357
[3]; first compound 0.01 µM
  relative viability: 0.369
[3]; first compound 0.03162 µM
  relative viability: 0.284
[3]; first compound 0.1 µM
  relative viability: 0.233
[4]; first compound 0.001 µM
  relative viability: 0.951
[4]; first compound 0.003162 µM
  relative viability: 1.03
[4]; first compound 0.01 µM
  relative viability: 1.21
[4]; first compound 0.1 µM
  relative viability: 0.774
[5]; first compound 0.001 µM
  relative viability: 0.387
[5]; first compound 0.003162 µM
  relative viability: 0.364
[5]; first compound 0.1 µM
  relative viability: 0.277
[6]; first compound 0.001 µM
  relative viability: 0.876
[6]; first compound 0.003162 µM
  relative viability: 1.09
[6]; first compound 0.01 µM
  relative viability: 0.967
[6]; first compound 0.03162 µM
  relative viability: 0.596
[6]; first compound 0.1 µM
  relative viability: 0.517
[7]; first compound 0.001 µM
  relative viability: 0.31
[7]; first compound 0.003162 µM
  relative viability: 0.328
[7]; first compound 0.01 µM
  relative viability: 0.332
[7]; first compound 0.03162 µM
  relative viability: 0.296
[7]; first compound 0.1 µM
  relative viability: 0.242
[8]; first compound 0.001 µM
  relative viability: 0.988
[8]; first compound 0.01 µM
  relative viability: 1.19
[8]; first compound 0.03162 µM
  relative viability: 0.96
[8]; first compound 0.1 µM
  relative viability: 0.9
[9]; first compound 0.001 µM
  relative viability: 0.445
[9]; first compound 0.003162 µM
  relative viability: 0.541
[9]; first compound 0.01 µM
  relative viability: 0.631
[9]; first compound 0.03162 µM
  relative viability: 0.382
[9]; first compound 0.1 µM
  relative viability: 0.429
[10]; first compound 0.001 µM
  relative viability: 0.57
[10]; first compound 0.003162 µM
  relative viability: 0.664
[10]; first compound 0.01 µM
  relative viability: 0.547
[10]; first compound 0.03162 µM
  relative viability: 0.345
[10]; first compound 0.1 µM
  relative viability: 0.349
[11]; first compound 0.001 µM
  relative viability: 0.745
[11]; first compound 0.003162 µM
  relative viability: 0.806
[11]; first compound 0.01 µM
  relative viability: 0.699
[11]; first compound 0.03162 µM
  relative viability: 0.64
[11]; first compound 0.1 µM
  relative viability: 0.556
[12]; first compound 0.001 µM
  relative viability: 0.237
[12]; first compound 0.003162 µM
  relative viability: 0.283
[12]; first compound 0.01 µM
  relative viability: 0.224
[12]; first compound 0.03162 µM
  relative viability: 0.151
[12]; first compound 0.1 µM
  relative viability: 0.164
[13]; first compound 0.001 µM
  relative viability: 0.485
[13]; first compound 0.003162 µM
  relative viability: 0.619
[13]; first compound 0.01 µM
  relative viability: 0.508
[13]; first compound 0.03162 µM
  relative viability: 0.329
[13]; first compound 0.1 µM
  relative viability: 0.433
[14]; first compound 0.001 µM
  relative viability: 0.521
[14]; first compound 0.003162 µM
  relative viability: 0.647
[14]; first compound 0.01 µM
  relative viability: 0.647
[14]; first compound 0.03162 µM
  relative viability: 0.551
[14]; first compound 0.1 µM
  relative viability: 0.554
[15]; first compound 0.001 µM
  relative viability: 0.816
[15]; first compound 0.003162 µM
  relative viability: 1.23
[15]; first compound 0.01 µM
  relative viability: 1.1
[15]; first compound 0.03162 µM
  relative viability: 0.842
[15]; first compound 0.1 µM
  relative viability: 0.868
[16]; first compound 0.001 µM
  relative viability: 0.249
[16]; first compound 0.003162 µM
  relative viability: 0.303
[16]; first compound 0.03162 µM
  relative viability: 0.157
[16]; first compound 0.1 µM
  relative viability: 0.158
[17]; first compound 0.001 µM
  relative viability: 0.134
[17]; first compound 0.003162 µM
  relative viability: 0.143
[17]; first compound 0.01 µM
  relative viability: 0.13
[17]; first compound 0.03162 µM
  relative viability: 0.116
[17]; first compound 0.1 µM
  relative viability: 0.128
[18]; first compound 0.001 µM
  relative viability: 0.952
[18]; first compound 0.003162 µM
  relative viability: 0.915
[18]; first compound 0.01 µM
  relative viability: 1.03
[18]; first compound 0.03162 µM
  relative viability: 0.974
[18]; first compound 0.1 µM
  relative viability: 0.9
[19]; first compound 0.001 µM
  relative viability: 0.405
[19]; first compound 0.003162 µM
  relative viability: 0.388
[19]; first compound 0.01 µM
  relative viability: 0.355
[19]; first compound 0.03162 µM
  relative viability: 0.368
[19]; first compound 0.1 µM
  relative viability: 0.345
[20]; first compound 0.001 µM
  relative viability: 0.487
[20]; first compound 0.003162 µM
  relative viability: 0.72
[20]; first compound 0.01 µM
  relative viability: 0.456
[20]; first compound 0.1 µM
  relative viability: 0.314
[21]; first compound 0.003162 µM
  relative viability: 0.973
[21]; first compound 0.03162 µM
  relative viability: 0.76
[21]; first compound 0.1 µM
  relative viability: 0.613
